≈ marks a conversion by molar mass, not a printed value. Residues, ends and D or L forms follow the SMILES beside them.
What was measured:
Assay type in all cases: cell-based
[1] = system: Gram-positive and Gram-negative bacteria; assay: MIC over all tested bacterial strains (range, geometric mean); conditions: for GM, geometric mean of the MIC values: all tested strains, 256 μM used where no activity at 128 μM
Procedure: (§1) Minimum inhibitory concentrations (MICs) were determined as previously described. The bacteria used to determine the MIC were first cultured in Mueller-Hilton broth (MHB) (AoBoX, Beijing, China) overnight at 37 °C and transferred into a fresh and sterile MHB and grown to an OD600 of 0.4. The bacteria then adjusted to a cell density of 5×10^5 CFU mL^−1 in MHB. Peptides were serially diluted in 0.01% acetic acid and 0.2% bovine serum albumin (BSA) (Sigma-Aldrich, Shanghai, China) in a volume of 50 μL per well to achieve final concentration ranging from 1 to 128 μM in sterile 96-well plates. 50 μL of prepared bacterial suspension was added to each well. The mixtures were incubated at 37 °C for 18–24 h. The MICs were calculated as the lowest concentration of the peptide that prevented visible turbidity. The tests were performed in triplicate using three replicates for each experiment.
It is calculated as HC10/GM.

P. aeruginosa ATCC27853 = system: P. aeruginosa ATCC27853
Procedure: as §1

E. coli ATCC25922 = system: E. coli ATCC25922
Procedure: as §1

S. typhimurium C7731 = system: S. typhimurium C7731
Procedure: as §1

S. pullorum C7913 = system: S. pullorum C7913
Procedure: as §1

S. faecalis ATCC29212 = system: S. faecalis ATCC29212
Procedure: as §1

E. coli UB 1005 = system: E. coli UB 1005
Procedure: as §1

S. epidermidis ATCC12228 = system: S. epidermidis ATCC12228
Procedure: as §1

S. typhimurium ATCC14028 = system: S. typhimurium ATCC14028
Procedure: as §1

S. aureus ATCC29213 = system: S. aureus ATCC29213
Procedure: as §1

human erythrocytes = assay: Hemolytic activity; conditions: for HC10, concentration that induced 10% hemolysis of human red blood cells: probit regression in SPSS, unit not given (peptides tested at 0.5–256 µM)
Procedure: Hemolytic activities of the peptides were determined according to the method described previously. Fresh heparinized human whole blood from healthy donor (Yang Yang, Harbin, China) was centrifuged at 1000 g for 5 min at 4 °C. The obtained erythrocytes were washed three times and resuspended in PBS. Then, 50 μL of erythrocyte solution was incubated with 50 μL peptides at different concentrations at 37 °C for 1 h. Erythrocytes in either PBS or 0.1% Triton X-100 (Sigma-Aldrich, Shanghai, China) were used as negative and positive controls, respectively. After centrifugation at 1000 g for 5 min at 4 °C, the supernatant was transferred into a new 96-well plate and the extent of hemolysis was monitored using a multimode microplate reader (Infinite M200 Pro, Tecan, Switzerland) at 576 nm. The percentage of hemolysis was calculated according to the following formula:hemolysis (%) = [(A-A0)/(At-A0)]×100(2) where A is the absorbance of the peptide sample, A0 and At represent 0% and 100% hemolysis determined in 10 mM PBS and 0.1% Triton X-100, respectively. Results were expressed as average values from three independent experiments and each experiment was performed in triplicate.
For statistical evaluation, data were analyzed using the Statistical Product and Service Solutions software (SPSS Inc., Chicago, IL, USA) by one-way ANOVA and the values were presented as mean ± standard error (SE). HC10 values were calculated by using probit regression in SPSS 19.

E. coli ATCC 25922 = conditions: ATCC 25922, 2 h
Procedure: (§2) Minimum inhibitory concentrations (MICs) were determined as previously described. […] The bacteria then adjusted to a cell density of 5×10^5 CFU mL^−1 in MHB. […] The mixtures were incubated at 37 °C for 18–24 h. The MICs were calculated as the lowest concentration of the peptide that prevented visible turbidity. The tests were performed in triplicate using three replicates for each experiment. Serum stability was determined according to the method previously described. Human serum was added in the peptide solution with the volume ratio of 1:1 in which the final concentration of 50% v/v of serum was yielded. Serum-peptide mixtures with the final concentration of 25% and 12.5% v/v serum were also prepared. Subsequently, the mixture was incubated at 37 °C for 2h. The antimicrobial activities of serum-preincubated peptides were determined according the MIC assay described above.

S. aureus ATCC 29213 = conditions: ATCC 29213, 2 h
Procedure: as §2

Row | SMILES | GM, geometric mean of the MIC values [1] [µM] | MIC (P. aeruginosa ATCC27853) [µM] | MIC (E. coli ATCC25922) [µM] | MIC (S. typhimurium C7731) [µM] | MIC (S. pullorum C7913) [µM] | MIC (S. faecalis ATCC29212) [µM] | MIC (E. coli UB 1005) [µM] | MIC (S. epidermidis ATCC12228) [µM] | MIC (S. typhimurium ATCC14028) [µM] | MIC (S. aureus ATCC29213) [µM] | HC10, concentration that induced 10% hemolysis of human red blood cells (human erythrocytes; 37 °C, 1 h) | MICs range against all tested bacterial strains ([1]; all nine tested Gram-negative and Gram-positive strains) [µM] | hemolytic activity (human erythrocytes; 256 μM peptide, 37 °C, 1 h, absorbance 576 nm, average of three independent experiments) [%] | fold decrease of hemolysis compared to CA (human erythrocytes; at 256 μM) | MIC after incubating with human serum (E. coli ATCC 25922) [µM] | MIC after incubating with human serum (S. aureus ATCC 29213) [µM]
1 | CC[C@H](C)[C@H](NC(=O)[C@H](CCCCN)NC(=O)[C@H](CCCNC(=N)N)NC(=O)[C@H](CC(C)C)NC(=O)[C@H](Cc1ccccc1)NC(=O)[C@H](CCCNC(=N)N)NC(=O)CNC(=O)[C@H](Cc1ccccc1)NC(=O)[C@@H](N)CCCNC(=N)N)C(=O)N[C@@H](CCCNC(=N)N)C(=O)N[C@@H](CCCNC(=N)N)C(=O)N[C@@H](Cc1ccccc1)C(=O)N[C@@H](CCCNC(=N)N)C(=O)N1CCC[C@H]1C(=O)N[C@@H](CCCCN)C(N)=O [FO] (H-RFGRFLRKIRRFRPK-NH2) | 25.40 | 32 (≈ 65 µg/mL) | 32 (≈ 65 µg/mL) | 32 (≈ 65 µg/mL) | 16 (≈ 32.5 µg/mL) | 16 (≈ 32.5 µg/mL) | 16 (≈ 32.5 µg/mL) | 16 (≈ 32.5 µg/mL) | 32 (≈ 65 µg/mL) | 64 (≈ 130 µg/mL) | 2.78 | – | – | – | – | –
2 | CC[C@H](C)[C@H](NC(=O)[C@H](CCCCN)NC(=O)[C@H](CCCCN)NC(=O)[C@H](Cc1ccccc1)NC(=O)[C@H](CC(C)C)NC(=O)[C@H](CCCCN)NC(=O)[C@H](Cc1c[nH]c2ccccc12)NC(=O)[C@@H](N)CCCCN)C(=O)N[C@@H](CCCNC(=N)N)C(=O)N[C@@H](Cc1ccccc1)C(=O)NCC(=O)N[C@@H](CCCNC(=N)N)C(=O)N[C@@H](Cc1ccccc1)C(=O)N[C@@H](CC(C)C)C(=O)N[C@@H](CCCNC(=N)N)C(=O)N[C@@H](CCCCN)C(=O)N[C@H](C(=O)N[C@@H](CCCNC(=N)N)C(=O)N[C@@H](CCCNC(=N)N)C(=O)N[C@@H](Cc1ccccc1)C(=O)N[C@@H](CCCNC(=N)N)C(=O)N1CCC[C@H]1C(=O)N[C@@H](CCCCN)C(N)=O)[C@@H](C)CC [CA-FO] (H-KWKLFKKIRFGRFLRKIRRFRPK-NH2) | 3.43 | 4 (≈ 12.4 µg/mL) | 2 (≈ 6.21 µg/mL) | 4 (≈ 12.4 µg/mL) | 8 (≈ 24.8 µg/mL) | 4 (≈ 12.4 µg/mL) | 2 (≈ 6.21 µg/mL) | 4 (≈ 12.4 µg/mL) | 4 (≈ 12.4 µg/mL) | 2 (≈ 6.21 µg/mL) | 143.34 | 2 to 8 | 13.83 | approximately 5 fold | 4 | 4
3 | CC[C@H](C)[C@H](NC(=O)[C@H](CCCCN)NC(=O)[C@H](CCCCN)NC(=O)[C@H](Cc1ccccc1)NC(=O)[C@H](CC(C)C)NC(=O)[C@H](CCCCN)NC(=O)[C@H](Cc1c[nH]c2ccccc12)NC(=O)[C@@H](N)CCCCN)C(=O)N[C@@H](Cc1c[nH]c2ccccc12)C(=O)N[C@@H](Cc1c[nH]c2ccccc12)C(=O)N1CCC[C@H]1C(=O)N[C@@H](Cc1ccccc1)C(=O)N[C@@H](CC(C)C)C(=O)N[C@@H](CCCNC(=N)N)C(=O)N[C@@H](CCCNC(=N)N)C(N)=O [CA-TP] (H-KWKLFKKIWWPFLRR-NH2) | 2.72 | 4 (≈ 8.53 µg/mL) | 2 (≈ 4.26 µg/mL) | 2 (≈ 4.26 µg/mL) | 4 (≈ 8.53 µg/mL) | 2 (≈ 4.26 µg/mL) | 4 (≈ 8.53 µg/mL) | 2 (≈ 4.26 µg/mL) | 4 (≈ 8.53 µg/mL) | 2 (≈ 4.26 µg/mL) | 49.66 | – | – | – | 4 | 4
4 | CC(C)C[C@H](NC(=O)[C@H](Cc1ccccc1)NC(=O)[C@@H]1CCCN1C(=O)[C@H](Cc1c[nH]c2ccccc12)NC(=O)[C@@H](N)Cc1c[nH]c2ccccc12)C(=O)N[C@@H](CCCNC(=N)N)C(=O)N[C@@H](CCCNC(=N)N)C(N)=O [TP] (H-WWPFLRR-NH2) | 74.66 | 64 (≈ 67.8 µg/mL) | 128 (≈ 136 µg/mL) | 64 (≈ 67.8 µg/mL) | 64 (≈ 67.8 µg/mL) | >128 | 128 (≈ 136 µg/mL) | 32 (≈ 33.9 µg/mL) | 32 (≈ 33.9 µg/mL) | 64 (≈ 67.8 µg/mL) | 25.06 | – | – | – | – | –
5 | CC[C@H](C)[C@H](NC(=O)[C@H](CCCCN)NC(=O)[C@H](CCCCN)NC(=O)[C@H](Cc1ccccc1)NC(=O)[C@H](CC(C)C)NC(=O)[C@H](CCCCN)NC(=O)[C@H](Cc1c[nH]c2ccccc12)NC(=O)[C@@H](N)CCCCN)C(N)=O [CA] (H-KWKLFKKI-NH2) | 203.19 | >128 | 64 (≈ 69.7 µg/mL) | >128 | >128 | >128 | >128 | >128 | >128 | 128 (≈ 139 µg/mL) | 15.54 | – | – | – | – | –
